Measured values published in patent US7786152B2, “Compound” (priority 2002, dated 2010).

Tests used:
Human 11βHSD1 = target: T1, Human 11βHSD1 (Homo sapiens, UniProt P28845); assay: 11β HSD1 cortisol radioimmunoassay (RIA) with human hepatic microsomes; type: biochemical; conditions: RIA format; Lineweaver-Burke; Buffer 3, 10 μg/well microsomal protein, 30 min; read-out: apparent Km
T1 construct: the enzyme source, native hepatic enzyme compared to recombinant enzyme; tissue XenoTech H0610/Lot 0210078; host or cells: human hepatic microsomes
T1 sequence (P28845 whole entry): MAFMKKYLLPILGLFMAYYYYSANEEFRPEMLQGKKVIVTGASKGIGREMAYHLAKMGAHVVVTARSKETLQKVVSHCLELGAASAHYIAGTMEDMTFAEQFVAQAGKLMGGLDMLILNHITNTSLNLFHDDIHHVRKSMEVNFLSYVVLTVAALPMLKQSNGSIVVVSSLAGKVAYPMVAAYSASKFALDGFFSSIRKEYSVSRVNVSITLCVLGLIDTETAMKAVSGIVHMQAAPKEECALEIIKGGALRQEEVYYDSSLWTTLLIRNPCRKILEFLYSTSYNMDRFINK
Experimental: Biological Assay Development Using Human 11β-Hydroxysteroid Dehydrogenase Type 1. Standard Operating Procedure for the 11β-Hydroxysteroid Dehydrogenase Type 1 Cortisol Radioimmunoassay. 11β HSD1 Cortisol RIA
Enzyme assay buffer: 30 mM Tris-HCL, pH 7.2 containing 1 mM EDTA
Antibody binding buffer: 50 mM Tris-HCL, pH 8, containing 0.1 M NaCl and 0.1% gelatin
Dilute into assay buffer 1 in 25. Also dilute neat DMSO 1 in 25 into assay buffer for controls.
Dilute this 1 in 50 into assay buffer.
Prepare NADPH as a 1.8 mg/ml solution in assay buffer.
Mix these 3 solutions 1:1:1 to make a solution of sufficient volume for 25 μl additions to each sample. Add 0.5 μCi tritiated cortisone per 25 μl and mix the solution well.
Microsome preparation: Dilute stock 20 mg/ml solution 1 in 100 with assay buffer.
Dextran coated charcoal preparation: Make a 20 mg/ml solution in antibody binding buffer and chill on ice.
Enzyme assay: To a u-bottom polypropylene 96 well plate add:
25 μl compound dilution or diluted DMSO to controls, NSB's and blanks
10 μl 1 mM GA in DMSO (enzyme stop solution) to blanks
25 μl substrate mixture to all samples
50 μl diluted microsomes to all samples
Incubate plate for 30 min at 37° C. shaking
Add 10 μl enzyme stop solution to all wells except the blanks
Add 100 μl antibody solution to all wells except the NSB's, add antibody binding buffer to these wells
Incubate at 37° C. for 1 h
Chill plate on ice for 15 min
Add 50 μl/well charcoal solution and mix with an 8-channel pipette (4-5 aspirations)
Centrifuge at 4° C., 2000×g for 15 min
Transfer 100 μl supernatant into an Optiplate, also add 25 μl substrate mixture to 2 empty wells to indicate counting efficiency
Add 200 μl Microscint-40 to all wells and count on a Topcount
The 11β HSD1 enzyme assay was carried out following the standard operating procedure described above in u-bottom polypropylene 96 well plates or 1.5 ml Eppendorf tubes as indicated for each experiment. Subsequent to stopping the enzyme reaction, 100 μl antibody prepared in buffer 3 unless otherwise indicated was added to test samples and 100 μl buffer 3 was added to the NSB samples. The samples were incubated for 1 hour at 37° C. and the chilled on ice for 15 mins. Dextran coated charcoal (50 μl/sample) prepared to the indicated concentration in buffer 3 was added and the samples were mixed (vortex for tubes and aspiration 5 times with an 8-channel pipette for 96 well plates) and chilled for a further 10 min. The samples were centrifuged at 2000×g for 15 min at 4° C. to pellet the charcoal. Aliquots of the supernatant (100 μl) were transferred to an Optiplate and counted on the Topcount in 150-200 μl Microscint 40. In some experiments, aliquots of supernatant were transferred to scintillation vials and counted on the Tricarb LSC in 5 ml Ultima Gold scintillant.
Substrate saturation was examined. The enzyme assay was carried out exactly described in the methods section, in Buffer 3 with 10 μg/well microsomal protein and with [cold cortisone] as indicated. [3H]-cortisone was 0.5 μCi/sample throughout. The reaction was stopped after 30 min by the addition of 10 μl stop solution. The RIA was carried out exactly as indicated in the methods section.
It is reported that DMSO can both increase and reduce microsomal enzyme activity, depending on the concentration, presumably due to effects on the microsomal membranes.

[1] = target: T2, human hepatic microsomal 11β-HSD1 (Homo sapiens, UniProt P28845); assay: 11β HSD1 TLC format assay with human hepatic microsomes; type: biochemical; conditions: Lineweaver-Burke, 10 μg microsomal protein, 30 minutes at 37° C., read-out: apparent Km for cortisone
T2 construct: the enzyme source, native hepatic enzyme compared to recombinant enzyme; tissue XenoTech H0610/Lot 0210078; host or cells: human hepatic microsomes
T2 sequence (P28845 whole entry): as above
Experimental: 11β-HSD1 activity in rat and human hepatic microsomes was evaluated, to determine the minimum microsomal protein concentrations required for measurement of enzyme activity. […] The assay was performed in Buffer 2 and the cortisone concentration used was 2 μM containing 0.5 μCi [^3H]-cortisone per incubation. Microsomes were tested at concentrations ranging from 50 μg to 400 μg protein per incubation in a final incubation volume of 100 μl in glass tubes. Samples were incubated for 1 h in a shaking water bath at 37° C. and the assay was stopped by addition of 1 ml ethyl acetate. To correct for recovery, 50 μl [^14C]-cortisol was added to the samples followed by 200 μl 0.05% CaCl2. The samples were vortex mixed and centrifuged as described above. The upper organic phase was removed and dried down, and the residue dissolved in 100 μl methanol and 50 μl aliquots were spotted onto TLC plates, which were run as described above. Samples were counted on a TriCarb liquid scintillation counter using a dual label programme. Recovery efficiency was determined from the DPM obtained in 50 μl [^14C]-cortisol solution, which was counted with the samples.
Lower human microsome protein concentrations were evaluated; 3.7 μg to 100 μg per sample. The time course of activity was also determined, from 0 to 60 minutes at 37° C. The extraction conditions were as described above. […]

C[C@]12CCC(=O)C=C1CC[C@@H]1[C@@H]2C(=O)C[C@@]2(C)[C@H]1CC[C@]2(O)C(=O)CO [cortisone, reference compound]
Km (Human 11βHSD1): 0.7 µM
Km [1]: 0.66 µM
